Where two headings read alike, the source gives them in different places. No end group written: not given here.
Key:
[1] = tested on: Human skin fibroblast (Hu02 cells); type: cell-based
Method: Toxicity of peptides on Human skin fibroblast (Hu02 cells) and two human breast cancer cell lines (MDA-MB-231 and SKBR3 cell lines) measured by an MTT assay. At first, cell lines with a density of 1 × 10^5 cells were cultured in the wells of 96-well plates for 24 h under standard conditions (37 °C temperature, 5% CO2 atmosphere with 95% relative humidity). After that, the old medium was replaced with fresh medium (with 10% FBS) containing different peptide concentrations, and the cells were incubated for 24 h. A medium without peptide was used as a negative control. After 24 h of incubation and washing the wells with PBS, the medium (containing 10% FBS) was replaced with fresh medium containing 10% MTT solution (freshly prepared 5 mg/ml MTT in PBS), and the plate was incubated for four h in 5% CO2, at 37 °C. Next, the medium was removed from the wells, and 100 µL DMSO was added. Afterward, the plate was shaken to dissolve Formazan crystals. Finally, by a microplate reader (STAT FAX 2100, BioTek, Winooski, USA), the absorbance values were measured at a wavelength of 595 nm. The percentage of toxicity was calculated as follows: […]

C. albicans [2] = assay: Killing kinetic assay (time of killing); type: cell-based, Candida albicans; conditions: 1X MIC concentration
C. glabrata = type: cell-based, Candida glabrata
Method: (§1) The microbial inoculum was prepared based on broth micro-dilution assay to generate a concentration of fungi corresponding to 5 × 10^5 CFU/mL. […] The obtained results were analyzed in terms of the fractional inhibitory concentration index (FIC): [drawing 4] AMPs and antibiotics are antagonistic if FIC ≥ 4.0, indifference if > 1 FIC < 4.0, additive if > 0.5 FIC ≤ 1, and synergism if FIC ≤ 0.5.

C. albicans [3] = assay: FE-SEM of C. albicans surface after peptide treatment; type: cell-based, Candida albicans; conditions: 0.5 X MIC
Method: At first, C. albicans were cultured in broth media. Next, yeasts were deposited by centrifugation (4000 rpm for 1 min) and washed (Three times) with PBS (pH 7.4). […] The samples were centrifuged at 4000 rpm for 1 min, washed three times in PBS, and put on the glass slides (1cm2). Subsequently, cells were dehydrated with ethanol gradient (at 10, 30, 60, 70, and 90%). After that, the dehydrated cells were dissolved in 100% ethanol for 15 min and dried at room temperature (25 °C). Finally, C. albicans cells were coated with gold nanoparticles by an automatic sputter coater and observed using an FE-SEM instrument (JSM-7610 F, JEOL Co., Japan and MIRA3, TESCAN Co., Czech).

C. albicans [4] = type: cell-based, Candida albicans
Method: as §1

C. albicans [5] = assay: Effect of salts and human serum on antimicrobial activity (MIC); type: cell-based, Candida albicans
Method: To evaluate the effect of salts and human serum on the antimicrobial activity of the AurH1-NH2 and AurH1 peptides, their antimicrobial activity (MICs values) against C. albicans under different conditions containing salt and human serum was determined. Therefore, mid-logarithmic phase yeasts diluted to 5 × 10^5 CFU/ml in SDB were added to related media containing different concentrations of human serum (10%, 20%, and 30%) and salts (150 mM NaCl and 1mM MgCl2), and incubated at 37 °C for 24 h.

C. albicans [6] = assay: Ergosterol binding assay (MIC in presence and absence of ergosterol); type: cell-based, Candida albicans
Method: An ergosterol binding assay was performed to measure the binding potency of peptides to fungal membrane sterols. For this purpose, the ergosterol was dissolved in DMSO and Tween-20, it was heated to increase the solubility of the formed emulsion and diluted in an SDB medium at a concentration of […] and incubated at 37 °C for 1 h. After that, MIC of the AurH1, Ac-AurH1, and AurH1-NH2 peptides was measured by the micro-dilution method in the presence and absence of ergosterol in different concentrations ([…]) against C. albicans.

[7] = tested on: Aspergillus niger (ATCC 9142); assay: microbe, parasite or virus in culture; type: cell-based; conditions: ATCC 9142, 24 h
Method: (§2) The human skin fibroblast (Hu02 cell) and human breast cancer cells (MDA-MB-231 and SKBR-3 cell lines) were purchased from the National Cell Bank of Iran, Pasture Institute of Ira) for cytotoxicity test. Antimicrobial effects of the Ac-AurH1, AurH1-NH2, and AurH1 against the selected bacteria and fungi were conducted using a standard serial dilution method in a 96-well microplate. For this purpose, the desired fungal and bacterial strains were grown overnight at 37 °C (Some of the fungi were incubated at 25 °C) in related media (SDA for fungi and MHA for bacteria). […] Next, serially diluted synthetic peptides in a volume of 100 μL were added to the microtitre plates, followed by 100 μL of bacteria and fungi to give a final inoculum of 5 × 10^5 colony-forming units (CFU)/ml (a 0.5 McFarland standard inoculum). […] In this test, penicillin and streptomycin antibiotics for bacteria and fluconazole, nystatin, and amphotericin B for fungal strains were used as antibiotic control. […] All tests were repeated three times independently.

[8] = tested on: Candida albicans (ATCC 10,231); assay: microbe, parasite or virus in culture; type: cell-based; conditions: ATCC 10, 24 h
Method: as §2

[9] = tested on: Candida glabrata (ATCC 90,030); assay: microbe, parasite or virus in culture; type: cell-based; conditions: ATCC 90, 24 h
Method: as §2

[10] = tested on: Escherichia coli (ATCC 25,922); assay: microbe, parasite or virus in culture; type: cell-based; conditions: ATCC 25, 24 h
Method: as §2

[11] = tested on: Staphylococcus aureus (ATCC 25,923); assay: microbe, parasite or virus in culture; type: cell-based; conditions: ATCC 25, 24 h
Method: as §2

[12] = tested on: Candida krusei (ATCC 28,870); assay: microbe, parasite or virus in culture; type: cell-based; conditions: ATCC 28, 24 h
Method: as §2

[13] = tested on: Aspergillus flavus (ATCC 24,109); assay: microbe, parasite or virus in culture; type: cell-based; conditions: ATCC 24, 24 h
Method: as §2

C. krusei = type: cell-based, Candida krusei
Method: as §1

human red blood cells = type: cell-based; conditions: 1 h
Method: A hemolytic assay was performed to investigate the effects of peptides on human red blood cells. First, 5 ml of fresh human blood was taken from a volunteer. After that, 20% (v/v) suspension of human erythrocytes was prepared and diluted in PBS (1:20). Next, 100 µL of this blood suspension was added in triplicate to 100 µL of a 2-fold serial dilution series of the peptide in a 96‐well plate. 1% Triton-X 100 was used as a positive control to lyse 100% of RBCs, and sterile 0.9% NaCl solution was used as a negative control. Then the plates were incubated at 37 °C for 1 h and centrifuged at 3500 rpm for 10 min. Next, 100 µL of the supernatant was transferred to a new 96-well plate to measure the absorbance at 414 nm using a microplate reader (STAT FAX 2100, BioTek, Winooski, USA). Finally, the percentage of hemolysis was calculated as follows: […]

[14] = tested on: Escherichia coli (ATCC 25,922); parameters: method as in our previous study [6]; conditions: E. coli; ref our previous study [6]; cited from earlier work
C. albicans [15] = tested on: C. albicans; parameters: method as in PMID 31264322; conditions: cited from earlier work
[16] = tested on: Candida krusei (ATCC 28,870); parameters: method as in our previous study [6]; conditions: C. krusei; ref our previous study [6]; cited from earlier work
[17] = tested on: Candida glabrata (ATCC 90,030); parameters: method as in our previous study [6]; conditions: C. glabrata; ref our previous study [6]; cited from earlier work
[18] = tested on: Staphylococcus aureus (ATCC 25,923); parameters: method as in our previous study [6]; conditions: S. aureus; ref our previous study [6]; cited from earlier work
[19] = tested on: Aspergillus niger (ATCC 9142); parameters: method as in our previous study [6]; conditions: A. niger; ref our previous study [6]; cited from earlier work
[20] = tested on: Aspergillus flavus (ATCC 24,109); parameters: method as in our previous study [6]; conditions: A. flavus; ref our previous study [6]; cited from earlier work
[21] = tested on: Candida albicans (ATCC 10,231); parameters: method as in our previous study [6]; conditions: C. albicans; ref our previous study [6]; cited from earlier work
[22] = in combination with amphotericin B (Amph)
[23] = in combination with fluconazole (Flu)
[24] = in combination with nystatin (Nys)
[25] = after treatment with Ergosterol (Erg)
[26] = before treatment with Ergosterol (substance alone)

H-WFKIIKK-NH2 [AurH1-NH2, WFKIIKK-NH2]
toxicity [1]: no significant toxicity
time to kill all C. albicans (maximum fungicidal effect) (C. albicans [2]): 12 h
Interpretation (C. glabrata; [22]): Synergy (synergism if FIC ≤ 0.5)
Interpretation (C. glabrata; [23]): Indifference (indifference if > 1 FIC < 4.0)
Interpretation (C. glabrata; [24]): Antagonist (antagonistic if FIC ≥ 4.0)
surface morphology change (FE-SEM) (C. albicans [3]; after 2 h): shrinkages in cell-surface
surface morphology change (FE-SEM) (C. albicans [3]; after 4 h): increase was seen in the amount of cell surface shrinkage and cell roughening
surface morphology change (FE-SEM) (C. albicans [3]; after 6 h): blisters and surface pores on the cell surface were created
Interpretation (C. albicans [4]; [22]): Synergy (synergism if FIC ≤ 0.5)
Interpretation (C. albicans [4]; [23]): Indifference (indifference if > 1 FIC < 4.0)
Interpretation (C. albicans [4]; [24]): Indifference (indifference if > 1 FIC < 4.0)
MIC (C. albicans [5]; SDB): 7.81 µg/mL
MIC (C. albicans [5]; SDB + 10% serum (human)): 7.81 µg/mL
MIC (C. albicans [5]; SDB + 20% serum (human)): 7.81 µg/mL
MIC (C. albicans [5]; SDB + 30% serum (human)): 15.6 µg/mL
MIC (C. albicans [5]; SDB + MgCl2 (1 mM)): 7.81 µg/mL
MIC (C. albicans [5]; SDB + NaCl (150 mM)): 7.81 µg/mL
MIC (C. albicans [6]; [25]): 7.81 µg/mL
MIC (C. albicans [6]; [26]): 7.81 µg/mL
MBC (MFC) [7]: 500 µg/mL
MIC [7]: 125 µg/mL
MBC (MFC) [8]: 62.50 µg/mL
MIC [8]: 7.81 µg/mL
MBC (MFC) [9]: 62.5 µg/mL
MIC [9]: 62.5 µg/mL
MIC [10]: > 1000 µg/mL
MIC [11]: > 1000 µg/mL
MBC (MFC) [12]: 31.25 µg/mL
MIC [12]: 7.81 µg/mL
MBC (MFC) [13]: 1000 µg/mL
MIC [13]: 250 µg/mL
Interpretation (C. krusei; [22]): Synergy (synergism if FIC ≤ 0.5)
Interpretation (C. krusei; [23]): Indifference (indifference if > 1 FIC < 4.0)
Interpretation (C. krusei; [24]): Antagonist (antagonistic if FIC ≥ 4.0)
HC50 (concentration that lyses 50% of red blood cells) (human red blood cells): 14,246 µg/ml

WFKIIKK [AurH1, WFKIIKK]
MIC [14]: > 1000 µg/mL
combinatorial effect (in words) (C. albicans [15]; in combination with amphotericin B): synergistic effects
combinatorial effect (in words) (C. albicans [15]; in combination with fluconazole): synergistic effects
time to kill all C. albicans (maximum fungicidal effect) (C. albicans [2]): 24 h
MBC (MFC) [16]: 250 µg/mL
MIC [16]: 31.25 µg/mL
MIC (C. albicans [5]; SDB): 15.6 µg/mL
MIC (C. albicans [5]; SDB + 10% serum (human)): 15.6 µg/mL
MIC (C. albicans [5]; SDB + 20% serum (human)): 62.5 µg/mL
MIC (C. albicans [5]; SDB + 30% serum (human)): 125 µg/mL
MIC (C. albicans [5]; SDB + MgCl2 (1 mM)): 15.6 µg/mL
MIC (C. albicans [5]; SDB + NaCl (150 mM)): 15.6 µg/mL
MBC (MFC) [17]: 500 µg/mL
MIC [17]: 125 µg/mL
MIC [18]: > 1000 µg/mL
MIC (C. albicans [6]; [25]): 15.6 µg/mL
MIC (C. albicans [6]; [26]): 15.6 µg/mL
MBC (MFC) [19]: 500 µg/mL
MIC [19]: 125 µg/mL
MIC [20]: > 1000 µg/mL
MBC (MFC) [21]: 125 µg/mL
MIC [21]: 15.625 µg/mL
HC50 (concentration that lyses 50% of red blood cells) (human red blood cells): 13,484 µg/ml

From publication PMC10633902, “Investigating the antimicrobial activity, cytotoxicity, and action mechanism of acylated and amidated derivatives of AurH1 antifungal peptide” (BMC Microbiology, 2023)
